In brackets after ≈: the same amount, converted by molar mass. Square brackets hold non-standard residues; d marks the D form. Peptide text beside a SMILES is read from it.
Experiments:
Experiment in all cases: microbe, parasite or virus in culture
A. baumannii strains = test system: A. baumannii strains
MDR A. baumannii = test system: MDR A. baumannii
Procedure, shortened: (§1)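 Broth microdilution per CLSI in cation-adjusted Mueller–Hinton broth with added calcium (50 mg/L) and magnesium (10 mg/L); mid-log bacteria at a final 5 × 10^5 CFU/ml were incubated with peptide for 18 h at 37 °C. MIC was the lowest concentration without visible turbidity, in triplicate.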

MDR E. faecalis = test system: MDR E. faecalis
Procedure, shortened: as §1

MDR S. aureus = test system: MDR S. aureus
Procedure, shortened: as §1

MDR P. aeruginosa = test system: MDR P. aeruginosa
Procedure, shortened: as §1

[1] = CAMHB plus 0.2% bovine serum albumin and 0.01% acetic acid, values marked * in Table 2

CC[C@@H](C)[C@@H](NC(=O)[C@@H](Cc1c[nH]c2ccccc12)NC(=O)[C@H](NC(=O)[C@@H](CC(C)C)NC(=O)[C@H](N)Cc1c[nH]c2ccccc12)C(C)C)C(=O)N[C@H](Cc1c[nH]c2ccccc12)C(=O)N[C@H](CCCNC(=N)N)C(=O)N[C@H](CCCNC(=N)N)C(=O)N[C@H](CCCNC(=N)N)C(N)=O [WCopW29] (H-[dW][dL][dV][dW][dI][dW][dR][dR][dR]-NH2)
Number of A. baumannii strains at MIC (μM) 0.63 (A. baumannii strains; of 30 strains): 3
Number of A. baumannii strains at MIC (μM) 1.25 (A. baumannii strains; of 30 strains): 25
Number of A. baumannii strains at MIC (μM) 2.5 (A. baumannii strains; of 30 strains): 2
Number of A. baumannii strains at MIC (μM) 5 (A. baumannii strains; of 30 strains): 0
Number of A. baumannii strains at MIC (μM) 10 (A. baumannii strains; of 30 strains): 0
Number of A. baumannii strains at MIC (μM) ≤0.31 (A. baumannii strains; of 30 strains): 0
Number of A. baumannii strains at MIC (μM) ≥20 (A. baumannii strains; of 30 strains): 0
MIC, A. baumannii ATCC 17978 (A. baumannii strains; strains, 18 h): 2.5 µM (≈ 3.42 µg/mL)
MIC, A. baumannii ATCC BBA 1605 (A. baumannii strains; strains, 18 h): 0.63 µM (≈ 0.863 µg/mL)
MIC, A. baumannii Isolated strain 1 (A. baumannii strains; strains, 18 h): 1.25 µM (≈ 1.71 µg/mL)
MIC, A. baumannii Isolated strain 3 (A. baumannii strains; strains, 18 h): 2.5 µM (≈ 3.42 µg/mL)
MIC, A. baumannii Isolated strain 6 (A. baumannii strains; strains, 18 h): 1.25 µM (≈ 1.71 µg/mL)
MIC, A. baumannii Isolated strain 10 (A. baumannii strains; strains, 18 h): 1.25 µM (≈ 1.71 µg/mL)
MIC, A. baumannii Isolated strain 14 (A. baumannii strains; strains, 18 h): 1.25 µM (≈ 1.71 µg/mL)
MIC, A. baumannii Isolated strain 15 (A. baumannii strains; strains, 18 h): 1.25 µM (≈ 1.71 µg/mL)
MIC, A. baumannii Isolated strain 16 (A. baumannii strains; strains, 18 h): 1.25 µM (≈ 1.71 µg/mL)
MIC, A. baumannii Isolated strain 19 (A. baumannii strains; strains, 18 h): 1.25 µM (≈ 1.71 µg/mL)
MIC, A. baumannii Isolated strain 22 (A. baumannii strains; strains, 18 h): 1.25 µM (≈ 1.71 µg/mL)
MIC, A. baumannii Isolated strain 39 (A. baumannii strains; strains, 18 h): 1.25 µM (≈ 1.71 µg/mL)
MIC, A. baumannii Isolated strain 44 (A. baumannii strains; strains, 18 h): 1.25 µM (≈ 1.71 µg/mL)
MIC, A. baumannii Isolated strain 66 (A. baumannii strains; strains, 18 h): 1.25 µM (≈ 1.71 µg/mL)
MIC, A. baumannii Isolated strain 68 (A. baumannii strains; strains, 18 h): 1.25 µM (≈ 1.71 µg/mL)
MIC, A. baumannii Isolated strain 69 (A. baumannii strains; strains, 18 h): 1.25 µM (≈ 1.71 µg/mL)
MIC, A. baumannii Isolated strain 71 (A. baumannii strains; strains, 18 h): 1.25 µM (≈ 1.71 µg/mL)
MIC, A. baumannii Isolated strain 76 (A. baumannii strains; strains, 18 h): 1.25 µM (≈ 1.71 µg/mL)
MIC, A. baumannii Isolated strain 80 (A. baumannii strains; strains, 18 h): 0.63 µM (≈ 0.863 µg/mL)
MIC, A. baumannii Isolated strain 82 (A. baumannii strains; strains, 18 h): 1.25 µM (≈ 1.71 µg/mL)
MIC, A. baumannii Isolated strain 86 (A. baumannii strains; strains, 18 h): 0.63 µM (≈ 0.863 µg/mL)
MIC, A. baumannii Isolated strain 89 (A. baumannii strains; strains, 18 h): 1.25 µM (≈ 1.71 µg/mL)
MIC, A. baumannii Isolated strain 102 (A. baumannii strains; strains, 18 h): 1.25 µM (≈ 1.71 µg/mL)
MIC, A. baumannii Isolated strain 127 (A. baumannii strains; strains, 18 h): 1.25 µM (≈ 1.71 µg/mL)
MIC, A. baumannii Isolated strain 141 (A. baumannii strains; strains, 18 h): 1.25 µM (≈ 1.71 µg/mL)
MIC, A. baumannii Isolated strain 144 (A. baumannii strains; strains, 18 h): 1.25 µM (≈ 1.71 µg/mL)
MIC, A. baumannii Isolated strain 147 (A. baumannii strains; strains, 18 h): 1.25 µM (≈ 1.71 µg/mL)
MIC, A. baumannii Isolated strain 152 (A. baumannii strains; strains, 18 h): 1.25 µM (≈ 1.71 µg/mL)
MIC, A. baumannii KCCM 40203 (A. baumannii strains; strains, 18 h): 1.25 µM (≈ 1.71 µg/mL)
MIC, A. baumannii NCCP 14654 (A. baumannii strains; strains, 18 h): 1.25 µM (≈ 1.71 µg/mL)
MIC at different cfu/ml, MDR A. baumannii (MDR A. baumannii; 1 × 10^10 cfu/ml (x2000)): 10 µM (≈ 13.7 µg/mL)
MIC at different cfu/ml, MDR A. baumannii (MDR A. baumannii; 2 × 10^8 cfu/ml (x400)): 2.5 µM (≈ 3.42 µg/mL)
MIC at killing kinetics condition, A. baumannii ATCC BAA 1605 (MDR A. baumannii; 5 x 10^5 cfu/ml, PBS): 0.63 µM (≈ 0.863 µg/mL)
MIC at different cfu/ml, MDR E. faecalis (MDR E. faecalis; 2 × 10^8 cfu/ml (x400)): 2.5 µM (≈ 3.42 µg/mL)
MIC at killing kinetics condition, E. faecalis ATCC 51575 (MDR E. faecalis; 5 x 10^5 cfu/ml, PBS): 1.25 µM (≈ 1.71 µg/mL)
MIC in 0.2% albumin and 0.01% AcOH added CLSI standard condition, MDR E. faecalis (MDR E. faecalis; [1]): 0.31 µM
Minimum inhibitory concentrations, MDR E. faecalis (MDR E. faecalis; CLSI broth microdilution, CAMHB with 50 mg/L Ca2+, 10 mg/L Mg2+, 5 × 10^5 CFU/ml, 18 h 37 °C, triplicate, strain ATCC 51575): 1.25 µM (≈ 1.71 µg/mL)
MIC at different cfu/ml, MDR S. aureus (MDR S. aureus; 1 × 10^10 cfu/ml (x2000)): 5 µM (≈ 6.85 µg/mL)
MIC at different cfu/ml, MDR S. aureus (MDR S. aureus; 2 × 10^8 cfu/ml (x400)): 2.5 µM (≈ 3.42 µg/mL)
MIC at killing kinetics condition, S. aureus KCCM 40510 (MDR S. aureus; 5 x 10^5 cfu/ml, PBS): 1.25 µM (≈ 1.71 µg/mL)
MIC in 0.2% albumin and 0.01% AcOH added CLSI standard condition, MDR S. aureus (MDR S. aureus; [1]): 0.31 µM
Minimum inhibitory concentrations, MDR S. aureus (MDR S. aureus; CLSI broth microdilution, CAMHB with 50 mg/L Ca2+, 10 mg/L Mg2+, 5 × 10^5 CFU/ml, 18 h 37 °C, triplicate, strain KCCM 40510): 1.25 µM (≈ 1.71 µg/mL)
Increase of MIC when the S. aureus concentration was increased 200-fold (MDR S. aureus; S. aureus): twofold
MIC at TM potential condition, S. aureus KCCM 40510 (MDR S. aureus; bacteria OD 0.1 (5 x 10^7 cfu/ml), CAMHB, 1% DMSO): 2 µM (≈ 2.74 µg/mL)
MIC at different cfu/ml, MDR P. aeruginosa (MDR P. aeruginosa; 2 × 10^8 cfu/ml (x400)): 5 µM (≈ 6.85 µg/mL)
MIC at killing kinetics condition, P. aeruginosa CCARM 2180 (MDR P. aeruginosa; 5 x 10^5 cfu/ml, PBS): 5 µM (≈ 6.85 µg/mL)
MIC in 0.2% albumin and 0.01% AcOH added CLSI standard condition, MDR P. aeruginosa (MDR P. aeruginosa; [1]): 5 µM

Source: publication PMC9643456, “Matching amino acids membrane preference profile to improve activity of antimicrobial peptides” (Communications Biology, 2022)
